In patent US6562806B1, “Pyrrolobenzodiazepines” (Spirogen Limited, priority 1998, dated 2003):
Where two headings read alike, the source gives them in different places.

How the values were obtained:
K562 cells = assay: MTT growth inhibition of K562 cells by irradiated aliquots; assay type: cell-based, human
Protocol: An MTT assay was used to evaluate the ability of aliquots of the activated analogues, which were removed at time intervals, to inhibit the growth of chronic human histiocytic leukaemia K562 cells in culture. Following treatment of cells with a range of drug doses, cells were transferred to 96-well microtitre plates, 10^4 cells per well, 8 wells per sample. Plates were incubated at 37° C. in a humidified atmosphere containing 5% CO2. The assay is based on the ability of viable cells to reduce a yellow soluble tetrazolium salt 3-(4,5-dimethylthiazolyl)-2,5-diphenyltetrazolium bromide (MTT), to an insoluble purple formazan precipitate. Following incubation of the plates for 4 days (to allow control cells to increase 10-fold in number), 20 μL of a 5 mg/mL solution of MTT in phosphate-buffered saline was added to each well and the plates were incubated for a further 5 hours. The plates were then centrifuged for 5 minutes at 300 g and the bulk of the medium was removed from the cell pellet. DMSO (200 μL) was added to each well, and the samples agitated to ensure complete mixing. The optical density was then measured at a wavelength of 550 nm on a Titertek Multiscan ELISA plate reader and expressed as a percentage of the control optical density. For each curve, an IC50 value was read as the dose required to reduce the final optical density to 50% of the control value.

[1] = UVA (365 nm) cleavage of photolabile NVOC group monitored by HPLC; assay type: physicochemical
Protocol: This experiment involved the irradiation of compound 11, see example 3, in DMF at a concentration of 1 mM using a Stratagene UVA Crosslinker(365 nm). Small aliquots (100 μL) were removed at 30 minutes, 1 hour, 2 hours and 3 hours and the cleavageof the photolabile NVOC group was monitored by HPLC, using a Waters C4, 300 angstrom reversed phase column and a mobile phase of 50% methanol/50% water. Compound 11 has a retention time of 11.25 minutes and upon radiation produced a new peak with a retention time of 8.58 minutes. Authentic benzyl DC-81 has an identical retention time of 8.58 minutes. Complete conversion is achieved by 2 hours of irradiation at 365 nm under the conditions employed.

A2780cisR = assay: Ovarian cell line cytotoxicity, SRB, 96 hours; assay type: cell-based
Protocol: (§1) Compounds 52 (UP 2073) and the comparative compound 55b (UP2090) were evaluated for their cytotoxic activity in ovarian cell lines by Dr Lloyd R. Kelland's group at The Institute of Cancer Research, Sutton, UK. The five cell lines investigated were SKOV-3, A2780/A2780cisR and CH1/CH1cisR (cisR denotes that the cell line is resistant to cisplatin).
(§2) Single viable cells were seeded in growth medium (160 μL) in 96-well microtitre plates and allowed to attach overnight. The test compounds were then dissolved in DMSO (to give 20 mM drug concentrations) immediately prior to adding the cells in quadruplicate wells. The final drug concentrations in the wells ranged from 100 μM to 2.5 nM as follows:100, 25, 10, 2.5, 1 μM, 250, 100, 25, 10, 2.5 nM (drugs were diluted in growth medium and then 40 μL added to the existing well volume of 160 μL to give final concentrations as above). After 96 hours, the medium was removed and the remaining cells fixed by exposure to 10% trichloroacetic acid on ice for 30 minutes. The wells were then washed 3-4 times with tap water, air dried overnight and treated with 100 μL of sulphorhodamine B (0.4%) dissolved in 1% acetic acid. Staining was allowed to continue for 10-15 minutes, then the wells were washed 3-4 times with 1% acetic acid, air dried and then added to Tris base (100 μL of 10 mM). Plates were then shaken and absorbance readings at […] were determined using a plate reader. The IC50 values were calculated from plots of concentration versus percentage absorbance (compared with 8 untreated wells).

CH1 = assay: Ovarian cell line cytotoxicity, SRB, 96 hours; assay type: cell-based; conditions: Homo sapiens; CH1, 96 hours
Protocol: as §1, §2

SKOV3 = assay: Ovarian cell line cytotoxicity, SRB, 96 hours; assay type: cell-based; conditions: Homo sapiens, SK-OV-3; SKOV3, 96 hours
Protocol: as §1, §2

CH1cisR = assay: Ovarian cell line cytotoxicity, SRB, 96 hours; assay type: cell-based
Protocol: as §1, §2

A2780 = assay: Ovarian cell line cytotoxicity, SRB, 96 hours; assay type: cell-based; conditions: Homo sapiens; A2780, 96 hours
Protocol: as §1, §2

[2] = tested on: SW1116 and LS174T cell lines; assay: Nitroreductase-activation cytotoxicity, SRB assay, 'same cell lines' (value not assigned to one line); assay type: cell-based, human
Protocol: (§3) Compound 7, synthesized according to example 1, was evaluated in two different cell lines, namely SW1116 and LS174T. Both SW1116 and LS174T are human adenocarcinoma colonic cell lines, which were grown at Charing Cross hospital. The cells, at a concentration of 2500 cells/ml, were plated in 96-well microtitre plates, and were incubated at 37° C. for 1 hour with different concentrations of the prodrug, in the presence or absence of E. coli nitroreductase-monoclonal antibody conjugate in phosphate buffer saline (available from Sigma), and NADH (the co-factor necessary for enzyme function) in DMSO. The cells were then washed and incubated for a further 3 days at 37° C. At the end of this period, the cells were fixed (TCA) and stained. The concentration of the remaining viable cells adhering to the plates was quantified by a sulforhodamine B (SRB) dye. The control sets of cells treated with the prodrug alone were used in order to evaluate the cytotoxicity of the compound prior to enzymatic activation.

LS174T cells = assay: Nitroreductase-activation cytotoxicity, SRB assay, LS174T cells; assay type: cell-based, human
Protocol: as §3

SW1116 cells = assay: Nitroreductase-activation cytotoxicity, SRB assay, SW1116 cells; assay type: cell-based, human
Protocol: as §3

[3] = irradiation time 0 hours, DMF at 1 mM initial drug concentration
[4] = irradiation time 0 hours, DMF at 10 mM initial drug concentration
[5] = LS174T, E. coli nitroreductase-antibody conjugate + NADH, read-out: IC50 in the presence of the enzyme and co-factor

`COc1cc(COC(=O)N2c3cc(OCc4ccccc4)c(OC)cc3C(=O)N3CCC[C@H]3C2O)c([N+](=O)[O-])cc1OC` (stereo partly drawn) [Compound 11, (11aS)-8-benzyloxy-7-methoxy-1,2,3,10,11,11a-hexahydro-11-hydroxy-10-(21-nitro-4′,5′-dimethoxybenzyloxy)carboxy-5H-pyrrolo[2,1-c][1,4]-benzodiazepine-5-one] gave an IC50 (K562 cells; [3]) of 47500 nM, an IC50 (K562 cells; [4]) of 48500 nM and an IC50 (K562 cells; irradiation time 0.5 hours, DMF at 1 mM initial drug concentration) of 980 nM. The IC50 (K562 cells; irradiation time 0.5 hours, DMF at 10 mM initial drug concentration) was 4330 nM, the IC50 (K562 cells; irradiation time 0.5 hours, FIG. 8: DMF at 1 mM, text says methanol) was 4500 nM and the IC50 (K562 cells; irradiation time 1.0 hours, DMF at 1 mM initial drug concentration) was 600 nM. It also gave an IC50 (K562 cells; irradiation time 1.0 hours, DMF at 10 mM initial drug concentration) of 2170 nM, an IC50 (K562 cells; irradiation time 1.0 hours, FIG. 8: DMF at 1 mM, text says methanol) of 4000 nM and an IC50 (K562 cells; irradiation time 2.0 hours, DMF at 1 mM initial drug concentration) of 600 nM. For the same compound, the IC50 (K562 cells; irradiation time 2.0 hours, DMF at 10 mM initial drug concentration) was 1750 nM, the IC50 (K562 cells; irradiation time 2.0 hours, FIG. 8: DMF at 1 mM, text says methanol) was 3200 nM and the “irradiation time to complete conversion” value ([1]; DMF, 1 mM, 365 nm, HPLC) was at most 2 h.
With `COc1cc2c(cc1OC)C(=O)N1CCC[C@H]1C=N2` [UP2025] the “RF (resistance factor)” value (A2780cisR; A2780cisR divided by A2780) was 2.4, the IC50 (A2780cisR; Homo sapiens, A2780cisR (cisplatin resistant), 96 hours) was 155 nM and the IC50 (CH1) was 82 nM. For the same compound, the IC50 (SKOV3) was 1700 nM, the “RF (resistance factor)” value (CH1cisR; CH1cisR divided by CH1) was 1.3 and the IC50 (CH1cisR; Homo sapiens, CH1cisR (cisplatin resistant), 96 hours) was 110 nM. For the same compound, the IC50 (A2780) was 64 nM.
`COc1cc2c(cc1OCc1ccccc1)N=C[C@@H]1CCCN1C2=O` [benzyl DC-81, reference compound] showed an IC50 (K562 cells; [3]) of 500 nM, an IC50 (K562 cells; [4]) of 500 nM and an IC50 (K562 cells; irradiation time 0 hours, FIG. 8: DMF at 1 mM, text says methanol) of 500 nM. The IC50 ([2]; same cell lines, same conditions, read-out: IC50 of the parent drug) was 8 nM.
With `CC=C1C[C@H]2C(O)N(C(=O)OCc3ccc([N+](=O)[O-])cc3)c3cc(OCc4ccccc4)c(OC)cc3C(=O)N2C1` (stereo partly drawn) [Compound 24, (11aS)-8-benzyloxy-7-methoxy-1,3,10,11,11a-tetrahydro-2-ethylidene-11-hydroxy-10-(p-nitrobenzyloxy)carboxy-5H-pyrrolo[2,1-c][1,4]-benzodiazepine-5-one] the IC50 ([2]; Homo sapiens, after addition of enzyme conjugate and NADH, cell line not specified, read-out: IC50 of the nitroreductase-activated prodrug) was 6400 nM, the IC50 ([2]; Homo sapiens, no enzyme, average of two experiments, cell line not specified, read-out: IC50 of prodrug alone) was 86200 nM and the activation factor ([2]; IC50 without / with enzyme conjugate and NADH) was “approximately 13.5”.
“1,1′-[[(Propane-1,3-diyl)dioxy]bis[[2-(2,3-dimethoxy-5-nitrobenzyloxycarboxamido)]bis[(11aS)-7-methoxy-1,2,3,11a-tetrahydro-11-hydroxy-5H-pyrrolo[1,2-c][1,4]benzodiazepine-5-one [Compound 32]” gave an IC50 (K562 cells; dimer series (FIG. 9), irradiation time 0 hours, footnote DMF at 1 mM, FIG. 9 legend methanol) of 4500 nM, an IC50 (K562 cells; dimer series (FIG. 9), irradiation time 0.5 hours, footnote DMF at 1 mM, FIG. 9 legend methanol) of 1900 nM and an IC50 (K562 cells; dimer series (FIG. 9), irradiation time 1.0 hours, footnote DMF at 1 mM, FIG. 9 legend methanol) of 1750 nM. The IC50 (K562 cells; dimer series (FIG. 9), irradiation time 2.0 hours, footnote DMF at 1 mM, FIG. 9 legend methanol) was 1250 nM, the IC50 (K562 cells; dimer series (FIG. 9), irradiation time 5.0 hours, footnote DMF at 1 mM, FIG. 9 legend methanol) was 850 nM and the “irradiation time to almost complete conversion” value ([1]; HPLC data (not shown)) was at most 2 h. The “irradiation time to complete conversion” value ([1]; HPLC data (not shown), dimer prodrug experiments) was at most 5 h.
With `COc1cc2c(cc1OCc1ccccc1)N(C(=O)OCc1ccc([N+](=O)[O-])cc1)C(O)[C@@H]1CCCN1C2=O` (stereo partly drawn) [Compound 7, (11aS)-8-benzyloxy-7-methoxy-1,2,3,10,11,11a-hexahydro-11-hydroxy-10-(p-nitrobenzyloxy)carboxy-5H-pyrrolo[2,1-c][1,4]-benzodiazepine-5-one] the IC50 ([2]; after addition of enzyme conjugate and NADH, cell line not specified, read-out: IC50 of the nitroreductase-activated prodrug) was 1000 to 5000 nM, the “difference between IC50 of parent drug and nitroreductase-activated prodrug” value ([2]; parent benzyl DC-81 vs activated prodrug) was 20-100 fold and the “toxicity of the prodrug alone” value (LS174T cells; LS174T cells, no enzyme, concentrations higher than 100 μM) was “slight toxicity”. For the same compound, the IC50 (LS174T cells; [5]) was 1000 to 5000 nM, the IC50 (SW1116 cells; SW1116, E. coli nitroreductase-antibody conjugate + NADH, read-out: IC50 in the presence of the enzyme and co-factor) was 1000 to 5000 nM and the “toxicity of the prodrug alone” value (SW1116 cells; SW1116 cells, no enzyme, concentrations of up to 500 μM) was “essentially non-toxic”.
With `COc1cc2c(cc1OCCCOc1cc3c(cc1OC)C(=O)N1CCC[C@H]1C(O)N3C(=O)OCc1ccc([N+](=O)[O-])cc1)N(C(=O)OCc1ccc([N+](=O)[O-])cc1)C(O)[C@@H]1CCCN1C2=O` (some centres unmarked) [Compound 30] the IC50 (LS174T cells; LS174T, no enzyme, average of two measurements, read-out: IC50 of prodrug alone) was 215000 nM, the IC50 (LS174T cells; [5]) was 13700 nM and the activation factor (LS174T cells; LS174T, IC50 without / with enzyme and co-factor) was 15-16 fold.
`COc1cc2c(cc1OCCCOc1cc3c(cc1OC)C(=O)N1CCC[C@H]1C=N3)N=C[C@@H]1CCCN1C2=O` [DSB-120, reference compound] gave an IC50 (K562 cells; Homo sapiens, K562, light or radiation study, dimer series (FIG. 9), irradiation time 0 hours, footnote DMF at 1 mM, FIG. 9 legend methanol) of 550 nM and an IC50 (LS174T cells; Homo sapiens, LS174T, read-out: cytotoxicity (IC50) of the parent agent) of 0.5 nM.
